In the experiment the test system is ECOs. Description: Response to secretin and somatostatin (organoid diameter). The experiment is classed as cell-based, human. Conditions: ECOs exposed to secretin, compared to untreated controls. Here is the method:
Responses to secretin and somatostatin were assessed as described in Sapazoits F, et al. (Biotechnol. 2015 1-11).
We then further characterized ECOs by focusing on their function following long-term culture (20 passages). The biliary epithelium regulates the homeostasis of bile through the transport of ions, water and bile acids. The secretory capacity of ECOs was interrogated using Rhodamine-123, a fluorescent substrate for the cholangiocyte surface glycoprotein Multidrug Resistance protein-1 (MDR1) (FIGS. 10 and 11). […]. […] The response of ECOs to secretin and somatostatin was also assessed. Secretin promotes water secretion, distending the bile duct lumen, while somatostatin negates the effects of secretin.

The values below come from patent US12203099B2, “Methods of expanding cholangiocytes” (Cambridge Enterprise Limited, priority 2017, dated 2025).

Turning to secretin, the organoid diameter entry was “increased their diameter compared to untreated controls”.
